This is an account of results in patent US11802120B2, “Fused cyclic urea derivatives as CRHR2 antagonist” (RaQualia Pharma Inc., priority 2018, dated 2023).

The structures appear in SMILES notation.

One may read the IC50 as the midpoint of a concentration-inhibition curve.

The test addresses T1, human CRHR2-alpha (Homo sapiens, UniProt Q13324).
T1 sequence (Q13324 1-411): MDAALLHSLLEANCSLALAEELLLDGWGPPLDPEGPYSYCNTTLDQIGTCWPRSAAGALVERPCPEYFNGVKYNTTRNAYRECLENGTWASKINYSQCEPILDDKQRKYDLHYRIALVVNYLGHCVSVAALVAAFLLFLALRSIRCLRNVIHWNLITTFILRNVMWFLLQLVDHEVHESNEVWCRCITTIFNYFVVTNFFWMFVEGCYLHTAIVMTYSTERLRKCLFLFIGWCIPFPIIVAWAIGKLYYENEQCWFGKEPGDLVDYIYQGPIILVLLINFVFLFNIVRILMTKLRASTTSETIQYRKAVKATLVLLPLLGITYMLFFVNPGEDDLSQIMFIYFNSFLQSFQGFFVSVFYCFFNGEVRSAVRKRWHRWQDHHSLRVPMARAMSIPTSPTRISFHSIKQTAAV
Kind of test: cAMP functional assay for human CRHR2 (LANCE Ultra cAMP, TR-FRET). The test is classed as cell-based. The conditions noted are these: CHO-K1 cells expressing human CRHR2-alpha, agonist human urocortin2 at EC80, cAMP; read-out: IC50 against CRHR2. The method in brief: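 Inhibition of agonist-driven cAMP was assessed in recombinant CHO-K1 cells at 25° C, using 30 min compound pretreatment and 30 min stimulation with EC80 human urocortin2 (CRHR2) or CRF (CRHR1). IC50 came from dose-response fitting.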
A general note: In TR-FRET formats the signal depends on donor and acceptor labels being close together.
As to `Cc1ncc(Cl)cc1C(=O)N[C@H]1CC[C@H](Cn2c(=O)n(-c3cnc4c(c3)OCC(=O)N4)c3ccccc32)CC1` [Example 224, 5-chloro-2-methyl-N-((1r,4r)-4-((2-oxo-3-(3-oxo-3,4-dihydro-2H-pyrido[3,2-b][1,4]oxazin-7-yl)-2,3-dihydro-1H-benzo[d]imidazol-1-yl)methyl)cyclohexyl)nicotinamide], the IC50 was < 300 nM.

`CNC(=O)c1ccc(-n2c(=O)n(C[C@H]3CC[C@H](NC(=O)c4cc(Cl)cnc4C)CC3)c3cc(C)ccc32)cn1` [Example 225, 5-(3-(((1r,4r)-4-(5-chloro-2-methylnicotinamido)cyclo-hexyl)methyl)-5-methyl-2-oxo-2,3-dihydro-1H-benzo [d]imidazol-1-yl)-N-methylpicolinamide]: the IC50 was < 300 nM.

In the case of `CNC(=O)c1ccc(-n2c(=O)n(C[C@H]3CC[C@H](NC(=O)c4cc(Cl)cnc4C)CC3)c3cc(F)ccc32)cn1` [Example 226, 5-(3-(((1r,4r)-4-(5-chloro-2-methylnicotinamido)cyclo-hexyl)methyl)-5-fluoro-2-oxo-2,3-dihydro-1H-benzo[d]imidazol-1-yl)-N-methylpicolinamide], the IC50 is < 300 nM.

For the compound `COc1ccc(-n2c(=O)n(C[C@H]3CC[C@H](NC(=O)c4cc(Br)cnc4C)CC3)c3ccccc32)cn1` [Example 227, 5-bromo-N-((1r,4r)-4-((3-(6-methoxypyridin-3-yl)-2-oxo-2,3-dihydro-1H-benzo[d]imidazol-1-yl)methyl)cyclo-hexyl)-2-methylnicotinamide], the IC50 is < 300 nM.

On to `COc1ccc(-n2c(=O)n(C[C@H]3CC[C@H](NC(=O)c4cc(Cl)cnc4C(F)(F)F)CC3)c3ccccc32)cn1` [Example 228, 5-chloro-N-((1r,4r)-4-((3-(6-methoxypyridin-3-yl)-2-oxo-2,3-dihydro-1H-benzo[d]imidazol-1-yl)methyl)cyclo-hexyl)-2-(trifluoromethyl) nicotinamide], for which the IC50 was < 300 nM.

Consider `COCOCCn1nc(C)c2cc(-n3c(=O)n(C[C@H]4CC[C@H](NC(=O)c5cc(Cl)cnc5C)CC4)c4ccccc43)ccc21` [Example 229, 5-chloro-N-((1r,4r)-4-((3-(1-(2-(methoxymethoxy)ethyl)-3-methyl-1H-indazol-5-yl)-2-oxo-2,3-dihydro-1H-benzo[d]imidazol-1-yl)methyl)cyclo-hexyl)-2-methylnicotinamide], for which the concentration for half-maximal inhibition (IC50) was < 300 nM.

For the compound `Cc1ncc(Cl)cc1C(=O)N[C@H]1CC[C@H](Cn2c(=O)n(-c3ccc4c(c3)c(C)nn4CCO)c3ccccc32)CC1` [Example 230, 5-chloro-N-((1r,4r)-4-((3-(1-(2-hydroxyethyl)-3-methyl-1H-indazol-5-yl)-2-oxo-2,3-dihydro-1H-benzo[d]imidazol-1-yl)methyl)cyclohexyl)-2-methylnicotinamide], the IC50 is < 300 nM.

As for `COc1ccc(-n2c(=O)n(C[C@H]3CC[C@H](NC(=O)c4cc(Cl)cnc4C)CC3)c3ccccc32)c(C#N)c1` [Example 231, 5-chloro-N-((1r,4r)-4-((3-(2-cyano-4-methoxyphenyl)-2-oxo-2,3-dihydro-1H-benzo[d]imidazol-1-yl)methyl)cyclo-hexyl)-2-methylnicotinamide], the IC50 was < 300 nM.

Take `Cc1ncc(Cl)cc1C(=O)N[C@H]1CC[C@H](Cn2c(=O)n(-c3ccc4nnn(C)c4c3)c3ccccc32)CC1` [Example 232, 5-chloro-2-methyl-N-((1r,4r)-4-((3-(1-methyl-1H-benzo[d] [1,2,3]triazol-6-yl)-2-oxo-2,3-dihydro-1H-benzo[d]imidazol-1-yl)methyl)cyclohexyl) nicotinamide]: the IC50 is < 300 nM.

With `Cc1ncc(Cl)cc1C(=O)N[C@H]1CC[C@H](Cn2c(=O)n(-c3ccccc3[N+](=O)[O-])c3ccccc32)CC1` [Example 233, 5-chloro-2-methyl-N-((1r,4r)-4-((3-(2-nitrophenyl)-2-oxo-2,3-dihydro-1H-benzo[d]imidazol-1-yl)methyl)cyclo-hexyl)nicotinamide], the IC50 is < 300 nM.

With `Cc1ncc(Cl)cc1C(=O)N[C@H]1CC[C@H](Cn2c(=O)n(-c3ccccc3Cl)c3ncccc32)CC1` [Example 234, 5-chloro-N-((1r,4r)-4-((3-(2-chlorophenyl)-2-oxo-2,3-dihydro-1H-imidazo[4,5-b]pyridin-1-yl)methyl)cyclo-hexyl)-2-methylnicotinamide], the IC50 was < 300 nM.

With `CNC(=O)c1ccc(-n2c(=O)n(C[C@H]3CC[C@H](NC(=O)c4cc(Cl)cnc4C)CC3)c3cccc(F)c32)cn1` [Example 235, 5-(3-(((1r,4r)-4-(5-chloro-2-methylnicotinamido)cyclo-hexyl)methyl)-7-fluoro-2-oxo-2,3-dihydro-1H-benzo[d]imidazol-1-yl)-N-methylpicolinamide], the IC50 is < 300 nM.

As to `COc1ccc(-n2c(=O)n(C[C@H]3CC[C@H](NC(=O)c4cc(Cl)cnc4Cl)CC3)c3ccccc32)cn1` [Example 237, 2,5-dichloro-N-((1r,4r)-4-((3-(6-methoxypyridin-3-yl)-2-oxo-2,3-dihydro-1H-benzo[d]imidazol-1-yl)methyl)cyclo-hexyl)nicotinamide], the IC50 was < 300 nM.

Consider `Cc1ncc(Cl)cc1C(=O)N[C@H]1CC[C@H](Cn2c(=O)n(-c3cccc4c3CCC4)c3ccncc32)CC1` [Example 238, 5-chloro-N-((1r,4r)-4-((1-(2,3-dihydro-1H-inden-4-yl)-2-oxo-1H-imidazo[4,5-c]pyridin-3(2H)-yl)methyl)cyclohexyl)-2-methylnicotinamide], for which the IC50 is < 300 nM.

In the case of `Cc1ncc(Cl)cc1C(=O)N[C@H]1CC[C@H](Cn2c(=O)n(-c3cccnc3C#N)c3ccccc32)CC1` [Example 239, 5-chloro-N-((1r,4r)-4-((3-(2-cyanopyridin-3-yl)-2-oxo-2,3-dihydro-1H-benzo[d]imidazol-1-yl)methyl)cyclohexyl)-2-methylnicotinamide], the IC50 is < 300 nM.

In the case of `CNC(=O)c1ccc(-n2c(=O)n(C[C@H]3CC[C@H](NC(=O)c4cc(Cl)cnc4C(F)(F)F)CC3)c3ccccc32)cn1` [Example 240, 5-(3-(((1r,4r)-4-(5-chloro-2-(trifluoromethyl)nicotina-mido)cyclohexyl)methyl)-2-oxo-2,3-dihydro-1H-benzo [d]imidazol-1-yl)-N-methylpicolinamide], the IC50 is < 300 nM.

For `Cc1ncc(Cl)cc1C(=O)N[C@H]1CC[C@H](Cn2c(=O)n(Cc3ccccc3C#N)c3ccccc32)CC1` [Example 241, 5-chloro-N-((1r,4r)-4-((3-(2-cyanobenzyl)-2-oxo-2,3-dihydro-1H-benzo[d]imidazol-1-yl)methyl)cyclohexyl)-2-methylnicotinamide], the IC50 is < 300 nM.

With `Cc1ncc(Cl)cc1C(=O)N[C@H]1CC[C@H](Cn2c(=O)n(Cc3cccc(C#N)c3)c3ccccc32)CC1` [Example 242, 5-chloro-N-((1r,4r)-4-((3-(3-cyanobenzyl)-2-oxo-2,3-dihydro-1H-benzo[d]imidazol-1-yl)methyl)cyclohexyl)-2-methylnicotinamide], the IC50 was < 300 nM.

Take `Cc1ncc(Cl)cc1C(=O)N[C@H]1CC[C@H](Cn2c(=O)n(-c3ccc4c(C(N)=O)noc4c3)c3ccccc32)CC1` [Example 243, 6-(3-(((1r,4r)-4-(5-chloro-2-methylnicotinamido)cyclohexyl)methyl)-2-oxo-2,3-dihydro-1H-benzo[d]imidazol-1-yl)benzo[d]isoxazole-3-carboxamide]: the IC50 is < 300 nM.

As to `CNC(=O)c1noc2cc(-n3c(=O)n(C[C@H]4CC[C@H](NC(=O)c5cc(Cl)cnc5C)CC4)c4ccccc43)ccc12` [Example 244, 6-(3-(((1r,4r)-4-(5-chloro-2-methylnicotinamido)cyclohexyl)methyl)-2-oxo-2,3-dihydro-1H-benzo[d]imidazol-1-yl)-N-methylbenzo[d]isoxazole-3-carboxamide], the IC50 is < 300 nM.

For the compound `Cc1ncc(Cl)cc1C(=O)N[C@H]1CC[C@H](Cn2c(=O)n(-c3ccc4c(C(=O)N(C)C)noc4c3)c3ccccc32)CC1` [Example 245, 6-(3-(((1r,4r)-4-(5-chloro-2-methylnicotinamido)cyclohexyl)methyl)-2-oxo-2,3-dihydro-1H-benzol[d]imidazol-1-yl)-N,N-dimethylbenzo[d]isoxazole-3-carboxamide], the IC50 is < 300 nM.

As to `COc1cccc(-n2c(=O)n(C[C@H]3CC[C@H](NC(=O)c4cc(Cl)cnc4C)CC3)c3ccccc32)c1C#N` [Example 246, 5-chloro-N-((1r,4r)-4-((3-(2-cyano-3-methoxyphenyl)-2-oxo-2,3-dihydro-1H-benzo [d]imidazol-1-yl)methyl)cyclohexyl)-2-methyl-nicotinamide], the IC50 was < 300 nM.

Consider `Cc1ccc(-n2c(=O)n(C[C@H]3CC[C@H](NC(=O)c4cc(Cl)cnc4C)CC3)c3ccccc32)c(C#N)c1` [Example 247, 5-chloro-N-((1r,4r)-4-((3-(2-cyano-4-methylphenyl)-2-oxo-2,3-dihydro-1H-benzo[d]imidazol-1-yl)methyl)cyclo-hexyl)-2-methylnicotinamide], for which the IC50 is < 300 nM.

Turning to `Cc1ncc(Cl)cc1C(=O)N[C@H]1CC[C@H](Cn2c(=O)n(-c3cnccc3C#N)c3ccccc32)CC1` [Example 248, 5-chloro-N-((1r,4r)-4-((3-(4-cyanopyridin-3-yl)-2-oxo-2,3-dihydro-1H-benzo[d]imidazol-1-yl)methyl)cyclohexyl)-2-methylnicotinamide], the IC50 was < 300 nM.
